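Assay format: 96-well plates, 48-hour exposure. GI50 = concentration required for 50% inhibition of growth.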 The source made the active and inactive calls. No stated cut-off is given here; in the data, active = GI50 up to about 1.1 µM and inactive = higher.
What was measured:
Experiment in all cases: DTP human tumour cell line panel, 48 h
COLO 205 = system: COLO 205
NCI/ADR-RES = system: NCI/ADR-RES
K562 = system: K562
OVCAR-8 = system: OVCAR-8
PC-3 = system: PC-3
UACC-257 = system: UACC-257
MDA-MB-435 = system: MDA-MB-435
TK-10 = system: TK-10
SF-268 = system: SF-268
SW-620 = system: SW-620
HOP-62 = system: HOP-62
SNB-19 = system: SNB-19
A549 = system: A549
HCT-116 = system: HCT-116
MOLT-4 = system: MOLT-4
MCF7 = system: MCF7
SF-295 = system: SF-295
NCI-H226 = system: NCI-H226
SR = system: SR

Structure (SMILES) | GI50 (COLO 205) | GI50 (NCI/ADR-RES) | GI50 (K562) | GI50 (OVCAR-8) | GI50 (PC-3) | GI50 (UACC-257) | GI50 (MDA-MB-435) | GI50 (TK-10) | GI50 (SF-268) | GI50 (SW-620) | GI50 (HOP-62) | GI50 (SNB-19) | GI50 (A549) | GI50 (HCT-116) | GI50 (MOLT-4) | GI50 (MCF7) | GI50 (SF-295) | GI50 (NCI-H226) | GI50 (SR)
COc1ccc(/C=N/n2c(Cc3ccc(Cl)cc3)n[nH]c2=O)c(OC)c1 | > 100 µM (inactive) | 12.3 µM (inactive) | > 100 µM (inactive) | 33 µM (inactive) | 28.8 µM (inactive) | 41.1 µM (inactive) | 36.8 µM (inactive) | 18.2 µM (inactive) | 13.5 µM (inactive) | > 100 µM (inactive) | > 100 µM (inactive) | 20.7 µM (inactive) | 27.4 µM (inactive) | > 100 µM (inactive) | > 100 µM (inactive) | 33.6 µM (inactive) | 19 µM (inactive) | 29.9 µM (inactive) | 
O=C(N/N=C(COc1cccc(Cl)c1)\N=C\c1cccnc1)c1ccncc1 | 95.9 µM (inactive) | > 100 µM (inactive) | > 100 µM (inactive) | 89.3 µM (inactive) | > 100 µM (inactive) | 90.4 µM (inactive) | > 100 µM (inactive) | > 100 µM (inactive) | > 100 µM (inactive) | > 100 µM (inactive) | > 100 µM (inactive) | > 100 µM (inactive) | > 100 µM (inactive) | > 100 µM (inactive) | > 100 µM (inactive) | > 100 µM (inactive) | > 100 µM (inactive) | 93.5 µM (inactive) | 
CN(C)c1ccc(-c2c(C#N)c(-c3ccccc3)n(NS(=O)(=O)c3ccccc3)c(=O)c2C#N)cc1 | > 100 µM (inactive) | 57.3 µM (inactive) | 49.1 µM (inactive) | 31.4 µM (inactive) | 26.9 µM (inactive) | > 100 µM (inactive) | 71.4 µM (inactive) | 79.6 µM (inactive) | 56 µM (inactive) | 43.3 µM (inactive) | 38.8 µM (inactive) | 24.8 µM (inactive) | 42.9 µM (inactive) | 34.1 µM (inactive) | 20.7 µM (inactive) | 40.7 µM (inactive) | 41.7 µM (inactive) | > 100 µM (inactive) | 
CCN(CC)c1nc(NC2CCCCC2)c2nc(N(CC)CC)nc(NC3CCCCC3)c2n1 |  | > 100 µM (inactive) | > 100 µM (inactive) | > 100 µM (inactive) | > 100 µM (inactive) |  | > 100 µM (inactive) | > 100 µM (inactive) | > 100 µM (inactive) | > 100 µM (inactive) | 73.1 µM (inactive) | > 100 µM (inactive) | > 100 µM (inactive) | > 100 µM (inactive) | > 100 µM (inactive) | > 100 µM (inactive) | > 100 µM (inactive) | > 100 µM (inactive) | > 100 µM (inactive)
C=CCc1oc(C)nc1CCCC | > 100 µM (inactive) | > 100 µM (inactive) | > 100 µM (inactive) | > 100 µM (inactive) | > 100 µM (inactive) | > 100 µM (inactive) | > 100 µM (inactive) | > 100 µM (inactive) | > 100 µM (inactive) | > 100 µM (inactive) | > 100 µM (inactive) | 49.3 µM (inactive) | > 100 µM (inactive) | > 100 µM (inactive) | > 100 µM (inactive) | > 100 µM (inactive) | > 100 µM (inactive) | > 100 µM (inactive) | 
Fc1cc(F)c(F)c(S)c1F | > 100 µM (inactive) | 19.4 µM (inactive) | 57.4 µM (inactive) | 41.1 µM (inactive) | 19.8 µM (inactive) | > 100 µM (inactive) | > 100 µM (inactive) | > 100 µM (inactive) | 77.3 µM (inactive) | 59.7 µM (inactive) | > 100 µM (inactive) | > 100 µM (inactive) | 36.6 µM (inactive) | > 100 µM (inactive) | 23.8 µM (inactive) | > 100 µM (inactive) | > 100 µM (inactive) | > 100 µM (inactive) | 
O=S(=O)(O)c1ccc(/N=N/c2ccc(/N=N/c3c(O)c(S(=O)(=O)O)cc4cc(S(=O)(=O)O)ccc34)cc2)cc1 | > 100 µM (inactive) | > 100 µM (inactive) | > 100 µM (inactive) | > 100 µM (inactive) | > 100 µM (inactive) | > 100 µM (inactive) | > 100 µM (inactive) | > 100 µM (inactive) | > 100 µM (inactive) | > 100 µM (inactive) | > 100 µM (inactive) | > 100 µM (inactive) | > 100 µM (inactive) | > 100 µM (inactive) | > 100 µM (inactive) | > 100 µM (inactive) | > 100 µM (inactive) | > 100 µM (inactive) | 
O=C(O)CCC(NC(=O)/C(=C/c1ccccc1)NC(=O)c1ccccc1)C(=O)O (stereo not drawn) | > 100 µM (inactive) | > 100 µM (inactive) | > 100 µM (inactive) | > 100 µM (inactive) | > 100 µM (inactive) | > 100 µM (inactive) | > 100 µM (inactive) | > 100 µM (inactive) | > 100 µM (inactive) | > 100 µM (inactive) | > 100 µM (inactive) | > 100 µM (inactive) | > 100 µM (inactive) | > 100 µM (inactive) | > 100 µM (inactive) | > 100 µM (inactive) | > 100 µM (inactive) | > 100 µM (inactive) | 
CN1CCCCCC(=N\O)/C(=N/O)CCCCC1 |  | > 100 µM (inactive) | > 100 µM (inactive) | > 100 µM (inactive) | > 100 µM (inactive) | > 100 µM (inactive) | > 100 µM (inactive) | > 100 µM (inactive) | > 100 µM (inactive) | > 100 µM (inactive) | > 100 µM (inactive) | > 100 µM (inactive) | > 100 µM (inactive) | > 100 µM (inactive) | > 100 µM (inactive) | > 100 µM (inactive) | > 100 µM (inactive) | > 100 µM (inactive) | > 100 µM (inactive)
Cc1[nH]c2ccccc2c1/C=N/NC(=O)c1cccc(I)c1 | 13.5 µM (inactive) | 20.3 µM (inactive) | 24.5 µM (inactive) | 26.5 µM (inactive) | 23 µM (inactive) | 23.7 µM (inactive) | 17.3 µM (inactive) | 26.7 µM (inactive) | 40.6 µM (inactive) | 29 µM (inactive) | 17.6 µM (inactive) | 29 µM (inactive) | 29.2 µM (inactive) | 22.9 µM (inactive) | 23.3 µM (inactive) | 19.5 µM (inactive) | 18.7 µM (inactive) |  | 17.9 µM (inactive)
CC1(C(O)c2ccccc2)CN(C(C)(C)C)C(=O)/C1=C\Sc1ccccc1 (stereo not drawn) | 20.9 µM (inactive) | 35.6 µM (inactive) | 42.1 µM (inactive) | 28.2 µM (inactive) | 17.3 µM (inactive) | 24.9 µM (inactive) | 30.1 µM (inactive) | > 100 µM (inactive) | 1.76 µM (inactive) | 46.8 µM (inactive) | 99.1 µM (inactive) | > 100 µM (inactive) | 20.2 µM (inactive) | 25.4 µM (inactive) | 19.2 µM (inactive) | 33.7 µM (inactive) | 28.3 µM (inactive) |  | 30.3 µM (inactive)
NS(=O)(=O)c1ccc(CNc2nc(-c3cccs3)nc3ccc(I)cc23)cc1 | 16.1 µM (inactive) | 26.2 µM (inactive) |  | 18.4 µM (inactive) | 19.4 µM (inactive) |  | 14.6 µM (inactive) | 9.16 µM (inactive) | 23.1 µM (inactive) | 31.5 µM (inactive) | 21.4 µM (inactive) | 17.4 µM (inactive) | 12.5 µM (inactive) | 14.9 µM (inactive) | 21.9 µM (inactive) | 0.573 µM (active) | 17.9 µM (inactive) | 17.9 µM (inactive) | 15 µM (inactive)
COc1cc(/C=C2\Cc3cc(OC)c(OC)cc3C2=O)cc(OC)c1 | > 46.7 µM (inactive) | 0.904 µM (active) | 0.479 µM (active) | > 26 µM (inactive) | > 79.1 µM (inactive) | > 87.3 µM (inactive) | 1.04 µM (active) | 48 µM (inactive) | 45.9 µM (inactive) | > 100 µM (inactive) | 15.8 µM (inactive) | 25.8 µM (inactive) | > 96.6 µM (inactive) | 21 µM (inactive) | > 100 µM (inactive) | > 86.5 µM (inactive) | 4.2 µM (inactive) | > 100 µM (inactive) | 
Clc1ccc(/N=C2\c3ccccc3CN2c2ccc(Cl)cc2)cc1 | 1.58 µM (inactive) | > 100 µM (inactive) | 0.119 µM (active) | > 100 µM (inactive) | 74.3 µM (inactive) | > 100 µM (inactive) | > 100 µM (inactive) | 87.5 µM (inactive) | 47.1 µM (inactive) | > 100 µM (inactive) | 63.1 µM (inactive) | > 100 µM (inactive) | 29.9 µM (inactive) | 41.4 µM (inactive) | > 100 µM (inactive) | 5.2 µM (inactive) | 10.4 µM (inactive) | > 100 µM (inactive) | 
Cc1cc2c(O)c(c1)CN(Cc1ccccc1)Cc1cc(C)cc(c1O)CN(Cc1ccccc1)Cc1cc(C)cc(c1O)CN(Cc1ccccc1)C2 | > 100 µM (inactive) | > 100 µM (inactive) | > 100 µM (inactive) | > 100 µM (inactive) | > 100 µM (inactive) | > 100 µM (inactive) | > 100 µM (inactive) | > 100 µM (inactive) | > 100 µM (inactive) | > 100 µM (inactive) | 46.2 µM (inactive) | > 100 µM (inactive) | > 100 µM (inactive) | > 100 µM (inactive) | > 100 µM (inactive) | > 100 µM (inactive) | > 100 µM (inactive) | > 100 µM (inactive) | 

From ChEMBL document CHEMBL1201862, “PubChem BioAssay data set” (2004)
